Measured values from the supplement of paper PMC10307832.

Key:
Assay in all cases: relative viability (nuclei count vs DMSO), 5 days (fraction); higher = more cells survive
[1] = compound: CC1(C)CNc2cc(NC(=O)c3cccnc3NCc3ccncc3)ccc21 [Motesanib] + COc1cccc2cc(-c3nc([C@H]4CC[C@H](C(=O)O)CC4)n4ncnc(N)c34)[nH]c12 [OSI-027] (partner 0.5 µM)
Method in brief: (§1)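 After 5 days of treatment, lung cancer cells in 1536-well plates were fixed and stained in a single step (final 0.05% Triton X-100, 1% formaldehyde, 1 ug/ml Hoechst) and their nuclei counted on 4× images. Treatment had been applied by pin tool the day after seeding as one drug alone or as a fixed anchor-drug dose with five library-drug doses (not always all listed) in √10 steps. Relative viability is the nuclei count of treated wells divided by that of vehicle wells, and values are medians of duplicate plates.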

[2] = compound: CC1(C)CNc2cc(NC(=O)c3cccnc3NCc3ccncc3)ccc21 [Motesanib] + NC(=O)Nc1cc(-c2cccc(F)c2)sc1C(=O)N[C@H]1CCCNC1 [AZD7762] (partner 0.2 µM)
Method in brief: as §1

[3] = compound: C[C@@]1(C(=O)Nc2ccc(F)nc2)CCCN1c1nc(Nc2cc(C3CC3)n[nH]2)c2cccn2n1 + Cc1nc(NC(=O)N2CCC[C@H]2C(N)=O)sc1-c1ccnc(C(C)(C)C(F)(F)F)c1 [Alpelisib] (partner 2 µM)
Method in brief: as §1

[4] = compound: CC1(C)CNc2cc(NC(=O)c3cccnc3NCc3ccncc3)ccc21 [Motesanib] + Cc1cc(Nc2cc(N3CCN(C)CC3)nc(Sc3ccc(NC(=O)C4CC4)cc3)n2)n[nH]1 [Tozasertib] (partner 0.1 µM)
Method in brief: as §1

| Cell Line | relative viability ([1]; first compound 0.01 µM) | relative viability ([1]; first compound 0.03162 µM) | relative viability ([1]; first compound 0.1 µM) | relative viability ([1]; first compound 0.3162 µM) | relative viability ([1]; first compound 1 µM) | relative viability ([2]; first compound 0.01 µM) | relative viability ([2]; first compound 0.03162 µM) | relative viability ([2]; first compound 0.1 µM) | relative viability ([2]; first compound 1 µM) | relative viability ([3]; first compound 0.04 µM) | relative viability ([3]; first compound 0.1265 µM) | relative viability ([3]; first compound 0.4 µM) | relative viability ([3]; first compound 1.265 µM) | relative viability ([4]; first compound 0.01 µM) | relative viability ([4]; first compound 0.03162 µM) | relative viability ([4]; first compound 0.1 µM) | relative viability ([4]; first compound 0.3162 µM) | relative viability ([4]; first compound 1 µM) | relative viability ([2]; first compound 0.3162 µM) |
| --- | --- | --- | --- | --- | --- | --- | --- | --- | --- | --- | --- | --- | --- | --- | --- | --- | --- | --- | --- |
| HCC-78 | 0.343 | 0.348 | 0.405 | 0.345 | 0.297 | 0.657 | 0.547 | 0.907 | 0.795 | 0.321 | 0.196 | 0.23 | 0.257 | 0.486 | 0.373 | 0.476 | 0.355 | 0.403 |  |
| NCI-H727 | 0.539 | 0.767 | 0.833 | 0.555 | 0.425 | 0.547 | 0.56 | 0.856 | 0.58 | 0.33 | 0.24 | 0.221 | 0.303 | 0.603 | 0.574 | 0.638 | 0.645 | 0.577 | 0.488 |
| NCI-H2087 | 0.427 | 0.544 | 0.585 | 0.705 | 0.573 |  |  | 1.41 | 1.55 | 1.09 | 1.07 | 0.928 | 0.851 | 0.208 | 0.204 | 0.261 | 0.208 | 0.258 | 1.13 |
| BEN | 0.281 | 0.277 | 0.272 | 0.291 | 0.31 | 0.617 | 0.877 | 0.645 | 0.799 | 1.16 | 1.37 | 0.929 | 1.16 | 0.505 | 0.529 | 0.627 | 0.547 | 0.543 | 0.576 |
| LCLC-103H | 0.471 | 0.467 | 0.465 | 0.429 | 0.466 | 0.802 | 0.743 | 0.781 | 0.829 | 1.01 | 0.818 | 0.829 | 1.08 | 0.489 | 0.341 | 0.47 | 0.442 | 0.551 | 0.825 |
| EKVX | 0.684 | 0.655 | 0.788 | 0.732 | 0.674 | 0.716 | 0.653 | 0.684 | 0.665 | 0.837 | 0.672 | 0.581 | 0.666 | 0.368 | 0.381 | 0.356 | 0.432 | 0.422 | 0.68 |
| LXF-289 | 0.708 | 0.841 | 0.857 | 0.912 | 0.886 | 1.07 | 1.06 | 1.14 | 1.16 | 1.09 | 0.991 | 0.975 | 1.1 | 0.228 | 0.182 | 0.184 | 0.27 | 0.212 | 1.22 |
| ABC-1 | 0.438 | 0.521 | 0.407 | 0.332 | 0.604 | 0.811 | 1 | 0.762 | 0.846 | 0.875 | 0.845 | 0.659 | 0.945 | 0.174 | 0.188 | 0.226 | 0.197 | 0.149 | 0.904 |
| NCI-H650 | 0.529 |  | 0.539 | 0.574 | 0.537 | 1.05 | 1.09 | 1.07 | 1 | 1.04 | 0.731 | 0.891 | 0.811 | 0.749 |  | 0.709 | 0.707 | 0.701 | 0.965 |
| NCI-H2085 | 0.812 | 0.892 | 0.753 | 0.67 | 0.691 | 1.02 | 0.933 | 1.14 | 0.987 | 0.936 | 0.927 | 0.883 | 0.851 | 0.852 | 0.749 | 0.886 | 0.818 | 0.797 | 0.953 |
| NCI-H1793 | 0.26 | 0.272 | 0.261 | 0.284 | 0.302 | 0.41 | 0.243 | 0.605 | 0.413 | 0.731 | 0.625 | 0.553 | 0.731 | 0.37 | 0.268 | 0.422 | 0.321 | 0.302 | 0.514 |
| LC-2-ad | 0.927 | 0.948 | 0.872 | 0.803 | 0.716 | 0.858 | 0.876 | 0.868 | 0.842 | 0.764 | 0.726 | 0.61 | 0.504 | 0.447 | 0.362 | 0.439 | 0.476 | 0.45 | 0.837 |
| NCI-H1355 | 0.411 | 0.424 | 0.39 | 0.414 | 0.431 | 0.778 | 0.54 | 0.837 | 0.673 | 0.816 | 0.758 | 0.613 | 0.868 | 0.556 | 0.414 | 0.639 | 0.59 | 0.448 | 0.687 |
| H3255 | 0.608 | 0.601 | 0.603 | 0.558 | 0.635 | 0.846 | 0.986 | 0.884 | 0.909 | 0.713 | 0.771 | 0.514 | 0.699 | 0.549 | 0.671 | 0.742 | 0.513 | 0.608 | 0.816 |
| NCI-H1993 | 0.526 | 0.554 | 0.552 | 0.543 | 0.557 | 0.788 | 0.725 | 0.595 | 0.863 | 0.678 |  | 0.649 | 0.745 | 0.603 | 0.614 | 0.552 | 0.501 | 0.605 | 0.676 |
| NCI-H1734 | 0.659 | 0.602 |  | 0.58 | 0.527 | 0.548 | 0.648 | 0.584 | 0.457 | 0.571 | 0.509 | 0.476 | 0.605 | 0.312 | 0.253 |  | 0.25 | 0.254 | 0.499 |
| HOP-62 | 0.843 | 0.912 | 0.839 | 0.92 | 0.815 | 0.456 | 0.836 | 0.613 | 0.595 | 1.04 | 0.843 | 0.897 | 1.11 | 0.369 | 0.306 | 0.412 | 0.388 | 0.395 | 0.761 |
| LOU-NH91 | 0.717 | 0.764 | 0.721 | 0.722 | 0.743 | 0.746 | 0.732 | 0.782 | 0.779 | 0.68 | 0.664 | 0.614 | 0.675 | 0.681 | 0.621 | 0.648 | 0.658 | 0.78 | 0.789 |
| PC-14 | 0.868 | 1.01 | 0.704 | 0.844 | 0.849 | 0.306 | 0.296 | 0.286 | 0.329 | 0.89 | 0.828 | 0.833 | 0.941 | 0.563 | 0.657 | 0.518 | 0.618 | 0.617 | 0.41 |
| NCI-H1437 | 0.872 | 0.899 | 0.903 | 0.803 | 0.856 | 1.05 | 1.08 | 1.15 | 1.11 | 0.722 | 0.561 | 0.581 | 0.717 | 0.398 | 0.375 | 0.393 | 0.423 | 0.408 | 1.11 |
| NCI-H460 | 0.616 | 0.633 | 0.619 | 0.635 | 0.632 | 0.56 | 0.633 | 0.772 | 0.611 | 0.401 | 0.207 | 0.222 | 0.389 | 0.416 | 0.266 | 0.514 | 0.442 | 0.485 | 0.653 |
| NCI-H1666 | 0.784 | 0.816 | 0.894 | 0.937 | 0.859 | 0.809 | 0.927 | 1.02 | 0.909 | 0.825 | 0.798 | 0.742 | 0.585 | 0.665 | 0.599 | 0.634 | 0.6 | 0.617 | 0.898 |
| NCI-H1651 | 0.848 | 0.663 | 0.628 | 0.652 | 0.615 | 0.401 | 0.499 | 0.547 | 0.463 | 0.86 | 0.785 | 0.779 | 0.904 | 0.67 | 0.655 | 0.754 | 0.732 | 0.797 | 0.451 |
| NCI-H1755 | 0.661 | 0.682 | 0.746 | 0.826 | 0.652 | 0.407 | 0.45 | 0.467 | 0.383 | 0.91 | 0.746 | 0.806 | 0.999 | 0.498 | 0.588 | 0.568 | 0.652 | 0.537 | 0.425 |
| HARA | 0.439 | 0.724 | 0.527 | 0.554 | 0.557 | 0.17 | 0.277 | 0.48 | 0.207 | 0.73 | 0.681 | 0.569 | 0.697 | 0.117 | 0.0896 | 0.097 | 0.133 | 0.0863 | 0.362 |
| NCI-H596 | 0.913 | 0.772 | 0.732 | 0.6 | 0.75 | 0.973 | 0.825 | 1.09 | 1.13 | 0.573 | 0.264 | 0.356 | 0.471 | 0.917 | 1.27 | 1.04 | 0.843 | 1.01 | 1.01 |
| NCI-H23 | 0.602 | 0.593 | 0.609 | 0.675 | 0.614 | 0.194 | 0.227 | 0.186 | 0.244 | 0.595 | 0.407 | 0.41 | 0.601 | 0.346 | 0.31 | 0.341 | 0.363 | 0.333 | 0.195 |
| LCLC-97TM1 | 0.519 | 0.56 | 0.465 | 0.58 | 0.537 |  | 0.328 | 0.241 | 0.256 | 0.186 | 0.156 | 0.181 | 0.181 | 0.2 | 0.178 | 0.257 | 0.279 | 0.17 | 0.238 |
